Laboratory results reported in ChEMBL document CHEMBL3864140, “Melanogenesis inhibitory activity of a 7-O-9'-linked neolignan from Alpinia galanga fruit” (Bioorg Med Chem, 2016).

Tests used:
[1] = Antimelanogenic activity in theophylline-stimulated mouse B16-4A5 cells assessed as inhibition of melanogenesis at 0.3 uM after 72 hrs relative to control; format: functional; details: B16-4A5, 72 h
[2] = Antimelanogenic activity in theophylline-stimulated mouse B16-4A5 cells assessed as inhibition of melanogenesis at 3 uM after 72 hrs relative to control; format: functional; details: B16-4A5, 72 h
[3] = Cytotoxicity against theophylline-stimulated mouse B16-4A5 cells assessed as cell viability at 3 uM after 72 hrs by MTT assay relative to control; format: toxicity; details: theophylline-stimulated B16-4A5 cells, read-out: Activity
[4] = Cytotoxicity against theophylline-stimulated mouse B16-4A5 cells assessed as cell viability at 10 uM after 72 hrs by MTT assay relative to control; format: toxicity; details: theophylline-stimulated B16-4A5 cells, read-out: Activity
[5] = Antimelanogenic activity in theophylline-stimulated mouse B16-4A5 cells assessed as inhibition of melanogenesis after 72 hrs relative to control; format: functional, cell-based
[6] = Antimelanogenic activity in theophylline-stimulated mouse B16-4A5 cells assessed as inhibition of melanogenesis at 10 uM after 72 hrs relative to control; format: functional; details: B16-4A5, 72 h
[7] = Cytotoxicity against theophylline-stimulated mouse B16-4A5 cells assessed as cell viability at 1 uM after 72 hrs by MTT assay relative to control; format: toxicity; details: theophylline-stimulated B16-4A5 cells, read-out: Activity
[8] = Cytotoxicity against theophylline-stimulated mouse B16-4A5 cells assessed as cell viability at 0.3 uM after 72 hrs by MTT assay relative to control; format: toxicity; details: theophylline-stimulated B16-4A5 cells, read-out: Activity
[9] = Antimelanogenic activity in theophylline-stimulated mouse B16-4A5 cells assessed as inhibition of melanogenesis at 1 uM after 72 hrs relative to control; format: functional; details: B16-4A5, 72 h
cells [10] = details: Mus musculus, B16-4A5, 72 h, read-out: INH
Description: Antimelanogenic activity in theophylline-stimulated mouse B16-4A5 cells assessed as inhibition of melanogenesis at 30 uM after 72 hrs relative to control

[11] = Cytotoxicity against theophylline-stimulated mouse B16-4A5 cells assessed as cell viability at 30 uM after 72 hrs by MTT assay relative to control; format: toxicity; details: theophylline-stimulated B16-4A5 cells, read-out: Activity
[12] = Cytotoxicity against theophylline-stimulated mouse B16-4A5 cells assessed as cell viability at 100 uM after 72 hrs by MTT assay relative to control; format: toxicity; details: theophylline-stimulated B16-4A5 cells, read-out: Activity
cells [13] = details: Mus musculus, B16-4A5, 72 h, read-out: INH; remark: listed apart in the source

| SMILES | inhibition at 0.3 µM [1] [%] | inhibition at 3 µM [2] [%] | viability at 72 h, 3 µM [3] [%] | viability at 72 h, 10 µM [4] [%] | IC50 [5] [µM] | inhibition at 10 µM [6] [%] | viability at 72 h, 1 µM [7] [%] | viability at 72 h, 0.3 µM [8] [%] | inhibition at 1 µM [9] [%] | inhibition at 30 µM (cells [10]) [%] | viability at 72 h, 30 µM [11] [%] | viability at 72 h, 100 µM [12] [%] | inhibition at 100 µM (cells [13]) [%] |
| --- | --- | --- | --- | --- | --- | --- | --- | --- | --- | --- | --- | --- | --- |
| C=C[C@@H](OC(C)=O)c1ccc(OC(C)=O)cc1 | 8.4 | 36.8 | 95.2 | 88.7 | 4.5 | 69.2 | 98.8 | 96.6 | 21.2 | – | – | – | – |
| CC(=O)Oc1ccc(/C=C/CO)cc1 | – | 10.7 | 92.9 | 85.8 | 29.4 | 18 | – | – | – | 96.9 | 65.5 | 44.9 | 94.8 |
| COc1cc(C=O)ccc1O [VANILLIN] | – | -8.4 | 108 | 104 | 49.2 | 8.4 | – | – | – | 49.7 | 104 | 106 | 96.1 |
| C=C[C@H](O)c1ccc(OC(C)=O)c(OC)c1 | – | 5 | 104 | 114 | – | 10.9 | – | – | – | 11.7 | 113 | 124 | 22.9 |
| OC/C=C/c1ccc(O)cc1 | – | -3.4 | 98.9 | 98.4 | > 100 | -2.8 | – | – | – | 35.8 | 116 | 110 | 46.9 |
| CC[C@H](OC(C)=O)c1ccc(OC(C)=O)cc1 | – | 41.6 | 106 | 105 | 10.5 | 44.5 | – | – | – | 74.1 | 96.5 | 94.5 | 105 |
| COC/C=C/c1ccc(O)cc1 | – | 18.2 | 109 | 104 | 19.5 | 25.1 | – | – | – | 56.9 | 93.6 | 107 | 81.7 |
| O=C/C=C/c1ccc(O)cc1 [p-HYDROXYCINNAMALDEHYDE] | – | 8.9 | 103 | 108 | 18.3 | 12.8 | – | – | – | 67.4 | 94.3 | 66.8 | 104 |
| CCC(=O)c1ccc(O)cc1 [PAROXYPROPIONE] | – | 4.1 | 111 | 116 | – | -3.6 | – | – | – | -1.9 | 117 | 125 | -3.6 |
| COc1cc(/C=C/CO)ccc1OC(C)=O | – | 5.5 | 90.6 | 85.9 | 16.9 | 12.9 | – | – | – | 102 | 60.1 | 41.7 | 63.3 |
| C=CC(OC(C)=O)c1ccc(OC(C)=O)cc1 (racemic) | 5 | 35.1 | 108 | 31.8 | 4.4 | 103 | 104 | 102 | 4.4 | – | – | – | – |
| C=CC(OC/C=C/c1ccc(O)cc1)c1ccc(O)cc1 (racemic) | 26.7 | 50.9 | 104 | 105 | 3 | 77.4 | 95.1 | 102 | 43.6 | – | – | – | – |
| C=C[C@H](OC/C=C/c1ccc(O)cc1)c1ccc(O)cc1 | 40.4 | 46.4 | 120 | 114 | 3.3 | 70.5 | 119 | 111 | 46.4 | – | – | – | – |
| C=C[C@H](O)c1ccc(OC(C)=O)cc1 | – | -6.7 | 87.9 | 97.2 | 88.5 | -0.4 | – | – | – | 14.9 | 101 | 114 | 56.7 |
| C=C[C@@H](OC/C=C/c1ccc(O)cc1)c1ccc(O)cc1 | 32.9 | 47.7 | 103 | 93.9 | 3.2 | 80.2 | 107 | 106 | 47.1 | – | – | – | – |
| O=Cc1ccc(O)cc1 [4-HYDROXYBENZALDEHYDE] | – | 11.3 | 107 | 103 | – | 4.2 | – | – | – | 7.9 | 107 | 103 | 3.5 |
| COc1cc(/C=C/CO)ccc1O [CONIFERYL ALCOHOL] | – | 35.9 | 98.9 | 98.2 | 16.1 | 44.5 | – | – | – | 64.2 | 88 | 33.1 | -3 |
| CC(=O)OC/C=C/c1ccc(O)cc1 | – | 4.1 | 99.2 | 100 | – | 0 | – | – | – | -3 | 96.1 | 90.1 | -13.4 |
| COc1cc(/C=C/C=O)ccc1O [CONIFERYL ALDEHYDE] | – | 17 | 101 | 85.8 | 15.3 | 23.7 | – | – | – | 100 | 74.2 | 44.7 | 87.7 |
